# Source: patent publication EP4813979A1, “COMPOUND FOR EGFR PROTEIN DEGRADATION AND USE THEREOF” (TYK Medicines, Inc., priority 2023, dated 2025)
# How the values were obtained:
# [1] = tested on: Baf3-L858R-T790M - C797S (Baf3-LTC); assay: Cell anti-proliferation experiment (CTG); assay type: cell-based
# How it was run: (§1)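 Cells were seeded at 1500–2500/well and dosed after ~24 h with compound in a 1:4 dilution series up to 10,000 nM, in triplicate. Viability was read by CTG luminescence after 72 h, normalized to the 0.1% DMSO control and medium blank, and IC50 was obtained by curve fitting.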
# A549 = assay: Cell anti-proliferation experiment (CTG); assay type: cell-based; conditions: Homo sapiens, A549 (wild-type EGFR)
# How it was run: as §1
# A431 = assay: Cell anti-proliferation experiment (CTG); assay type: cell-based; conditions: Homo sapiens, A431 (wild-type EGFR)
# How it was run: as §1
# PC-9 = assay: Cell anti-proliferation experiment (CTG); assay type: cell-based; conditions: Homo sapiens, PC-9 (EGFR exon 19 deletion)
# How it was run: as §1
# H1975 = assay: Cell anti-proliferation experiment (CTG); assay type: cell-based; conditions: Homo sapiens, H1975 (EGFR T790M/L858R)
# How it was run: as §1
# [2] = tested on: Baf3-19del- T790M -C797S (Baf3-DTC); assay: Cell anti-proliferation experiment (CTG); assay type: cell-based
# How it was run: as §1
# HCC827 = assay: Cell anti-proliferation experiment (CTG); assay type: cell-based; conditions: Homo sapiens, HCC827 (exon 19 deletion)
# How it was run: as §1
# [3] = Pharmacokinetic test of CD-1 mice; assay type: in vivo; design: AUC(0-t) / AUC(0-inf): concentration or dose not given beside the values; conditions: male CD-1 mice, single oral gavage (PO), plasma
# Method: Plasma was collected from male CD-1 mice after a single gavage administration of the test substance. The plasma was then analyzed to calculate pharmacokinetic parameters.
# The solvent is 5% DMSO + 10% Solutol HS-15 + 85% Saline.
# Formulation preparation process: Accurately weighed the compound powder, added appropriate volumes of DMSO, Solutol and physiological saline in sequence, and vortexed sonicate at each step to finally form a homogeneous formulation solution.
# Experimental animals were housed in the SPF-grade animal facility of Suzhou Xihua New Drug Development Co., Ltd. (License No.: SYXK(Su)2021-0019). Animals were fed normally for at least 3 days after purchase before the experiment, and each mouse was marked with a tail tag. Animals in the oral administration group were fasted overnight the day before administration, and were resumed feeding 4 hours later, with free access to water. Table 4. Sources and Number of Experimental Animals […]
# Before administration, checked the state of the administration formulation and ensured its homogeneity by vortexing, stirring or shaking. Calculated the theoretical administration volume for each CD-1 mouse in each group according to the following formula. Theoretical administration volume (mL); = (Dose (mg⋅kg^−1))/(formulation concentration (mg⋅mL^−1)) × animal body weight (kg) [formula]
# Table 5 Sample Collection Information
# The collected blood was placed in test tubes containing the anticoagulant EDTA-K2 (15 % EDTA-K2 solution), stored on moist ice, and centrifuged within 45 min (1,500 g, 2-8 °C, 10 min). Plasma was then collected. The plasma was stored in pre-chilled centrifuge tubes, flash-frozen on dry ice, and subsequently stored in an ultra-low temperature freezer at -60 °C or lower until shipment.
# A quantitative detection method for the analyte was established using Shimadzu liquid chromatography and Triple Quad™ 6500+AB mass spectrometry. The concentration of the parent drug in plasma was analyzed. The analytical results were controlled for variation using quality control samples, with the accuracy of the quality control samples expected to be between 80% and 120%.
# The main pharmacokinetic parameters were calculated using a non-compartmental model in Winnonlin Phoenix software. These parameters included the area under the curve (AUC(0-t) and AUC(0-∞)), elimination half-life (T1/2), maximum plasma concentration (Cmax ), and time to reach maximum plasma concentration (Tmax).
# [4] = 72 h, number after the class symbol
# [5] = A549, 72 h, number after the class symbol
# [6] = A-431, 72 h, number after the class symbol
# [7] = PC-9, 72 h, number after the class symbol
# [8] = NCI-H1975, 72 h, number after the class symbol
# [9] = HCC827, 72 h, number after the class symbol
Compound,"IC50 ([1]; 72 h, class symbol) [µM]","IC50 [1, 4] [µM]","IC50 (A549; A549, 72 h, class symbol) [µM]",IC50 (A549; [5]) [µM],"IC50 (A431; A-431, 72 h, class symbol) [µM]",IC50 (A431; [6]) [µM],"IC50 (PC-9; PC-9, 72 h, class symbol) [µM]",IC50 (PC-9; [7]) [µM],"IC50 (H1975; NCI-H1975, 72 h, class symbol) [µM]",IC50 (H1975; [8]) [µM],"IC50 ([2]; 72 h, class symbol) [µM]","IC50 [2, 4] [µM]","IC50 (HCC827; HCC827, 72 h, class symbol) [µM]",IC50 (HCC827; [9]) [µM],further results
"COc1cc(N2CCC(CN3CCN(c4ccc5c(c4)C(=O)N(C4CCC(=O)NC4=O)C5=O)CC3)CC2)c(-c2cnn(C)c2)cc1Nc1ncc(Br)c(Nc2ccc(C3CC3)cc2P(C)(C)=O)n1 (stereo not drawn) [DZL-1, reference compound]",0.01 to 0.1,0.0136,> 1,> 5,> 1,> 5,0.1 to 1,0.205,0.01 to 0.1,0.0548,0.01 to 0.1,0.0145,0.1 to 1,0.105,–
CCc1cc(Nc2ncc(Cl)c(Nc3ccccc3C(=O)NC)n2)c(OC)cc1N1CCN(C(=O)CN2CCC(c3cc4c(cc3F)c(N3CCC(=O)NC3=O)nn4C)C(F)(F)C2)CC1 (stereo not drawn) [TA-003],–,–,–,–,–,–,–,–,–,–,–,–,–,–,"HL_ [3]: 2.45 h; AUC(0-inf) ([3]; mouse): 20700 ng·h/mL; AUC(0-t) ([3]; mouse): 20600 ng·h/mL; Cmax ([3]; mouse): 3410 ng/mL; MRT last ([3]; mouse): 5.11 h; Tmax ([3]; mouse): 4 h; IC50 ([1]; 72 hours, class symbol): 0.1 to 1 µM; IC50 (A549; 72 hours, class symbol): > 1 µM; IC50 (A431; A-431, 72 hours, class symbol): > 1 µM; IC50 (PC-9; 72 hours, class symbol): > 1 µM; IC50 (H1975; NCI-H1975, 72 hours, class symbol): < 0.01 µM; IC50 ([2]; 72 hours, class symbol): 0.1 to 1 µM; IC50 (HCC827; 72 hours, class symbol): > 1 µM"
CCc1cc(Nc2ncc(Cl)c(Nc3ccccc3P(C)(C)=O)n2)c(OC)cc1N1CC2(CCN(C(=O)CN3CCC(c4cc5c(cc4F)c(N4CCC(=O)NC4=O)nn5C)C(F)(F)C3)CC2)C1 (stereo not drawn) [TA-023],< 0.01,0.0084,> 1,1.26,> 1,1.18,0.1 to 1,0.461,0.01 to 0.1,0.0147,0.1 to 1,0.202,0.1 to 1,0.593,–
CCc1cc(Nc2ncc(Cl)c(Nc3ccccc3P(C)(C)=O)n2)c(OC)cc1N1CCN(C(=O)CN2CCC(c3cc4c(cc3F)c(N3CCC(=O)NC3=O)nn4C)C(F)(F)C2)CC1 (stereo not drawn) [TC-157],< 0.01,0.0041,0.1 to 1,0.948,> 1,1.65,0.1 to 1,0.349,0.01 to 0.1,0.024,< 0.01,0.0041,0.1 to 1,0.812,–
CCc1cc(Nc2ncc(Cl)c(Nc3ccccc3P(C)(C)=O)n2)c(OC)cc1N1CCN(C(=O)CN2CCC(c3cc4c(cc3F)c(N3CCC(=O)NC3=O)nn4C)CC2)CC1 [TC-213],< 0.01,0.0008,> 1,1.77,> 1,1.34,0.1 to 1,0.505,0.01 to 0.1,0.0359,< 0.01,0.0089,0.01 to 0.1,0.053,–
